Measured values from patent US20180110754A1, “CENICRIVIROC FOR THE TREATMENT OF FIBROSIS” (Tobira Therapeutics, Inc., priority 2015, published 2018).

Assays:
[1] = test system: MCP-1, sCD14, hs-CRP, IL-6, D-dimer, fibrinogen; assay: Study 202: biomarkers of inflammation and immune function; type: in vivo, human
Experimental: As an exploratory analysis, levels of inflammation biomarkers MCP-1, sCD14, high sensitivity C-reactive protein [hs-CRP], interleukin-6 [IL-6], D-dimer, and fibrinogen) were measured. Baseline values and changes from baseline at Week 24 and Week 48 of MCP-1, sCD14, hs-CRP, IL-6, D-dimer, and fibrinogen are summarized in Table 25.
The sCD14 samples were originally analyzed in 2 separate batches: Batch 1 included samples leading up to the Week 24 primary analysis and Batch 2 included Week 32 and Week 48 (end of study) samples. A repeat analysis of archived samples all analyzed in one batch was conducted for consistency in analysis across time points. To control for the effects of covariates, a linear mixed-model repeated-measures analysis was conducted on the changes from baseline in sCD14 (analysis dated September 2013).

HIV-1 = assay: Study 202 Phase 2b: virologic response (HIV-1 RNA <50 copies/mL, FDA Snapshot); type: in vivo, human
From the text: Subjects with a history of HIV-2, hepatitis B and/or C, cirrhosis of the liver or any known active or chronic active liver disease were excluded from the study.
The primary efficacy endpoint was virologic response at Week 24, defined as HIV-1 RNA<50 copies/mL using the FDA Snapshot Algorithm.

[2] = Study 202: treatment-emergent laboratory abnormalities (DAIDS grades; CPK, ALT, AST, bilirubin); type: in vivo; conditions: All CVC (N = 115), EFV (N = 28)
From the text: The number of subjects with graded treatment-emergent laboratory abnormalities in selected liver parameters of interest is shown in Table 34. No Grade 4 ALT or AST elevations were observed. Except for one Grade 3 AST elevation, all ALT and AST elevations were Grade 1 or Grade 2. […] All abnormalities in bilirubin were Grade 1 or Grade 2. […]

For `CCCCOCCOc1ccc(-c2ccc3c(c2)/C=C(/C(=O)Nc2ccc([S@@+]([O-])Cc4cncn4CCC)cc2)CCCN3CC(C)C)cc1` [CVC, (S)-8-[4-(2-Butoxyethoxy)phenyl]-1-isobutyl-N-(4-{[(1-propyl-1H-imidazol-5-yl)methyl]sulfinyl}phenyl)-1,2,3,4-tetrahydro-1-benzazocine-5-carboxamide], the “D-dimer baseline value, mean” value ([1]; CVC 100 mg) was 187 ng/mL, the “D-dimer baseline value, median” value ([1]; CVC 100 mg) was 150 ng/mL and the “D-dimer change from baseline at Week 24, mean” value ([1]; CVC 100 mg) was -32 ng/mL. For the same compound, the “D-dimer change from baseline at Week 24, median” value ([1]; CVC 100 mg) was -1.0 ng/mL, the “D-dimer change from baseline at Week 48, mean” value ([1]; CVC 100 mg) was -41 ng/mL and the “D-dimer change from baseline at Week 48, median” value ([1]; CVC 100 mg) was -1.0 ng/mL. The “Fibrinogen baseline value, mean” value ([1]; CVC 100 mg) was 236 mg/dL, the “Fibrinogen baseline value, median” value ([1]; CVC 100 mg) was 229 mg/dL and the “Fibrinogen change from baseline at Week 24, mean” value ([1]; CVC 100 mg) was -3 mg/dL. The “Fibrinogen change from baseline at Week 24, median” value ([1]; CVC 100 mg) was -14 mg/dL, the “Fibrinogen change from baseline at Week 48, mean” value ([1]; CVC 100 mg) was 11 mg/dL and the “Fibrinogen change from baseline at Week 48, median” value ([1]; CVC 100 mg) was 15 mg/dL. For the same compound, the “IL-6 baseline value, mean” value ([1]; CVC 100 mg) was 2.51 pg/mL, the “IL-6 baseline value, median” value ([1]; CVC 100 mg) was 1.90 pg/mL and the “IL-6 change from baseline at Week 24, mean” value ([1]; CVC 100 mg) was 0.42 pg/mL. The “IL-6 change from baseline at Week 24, median” value ([1]; CVC 100 mg) was 0.00 pg/mL, the “IL-6 change from baseline at Week 48, mean” value ([1]; CVC 100 mg) was 0.29 pg/mL and the “IL-6 change from baseline at Week 48, median” value ([1]; CVC 100 mg) was 0.00 pg/mL. For the same compound, the “MCP-1 baseline value, mean” value ([1]; CVC 100 mg) was 128 pg/mL, the “MCP-1 baseline value, median” value ([1]; CVC 100 mg) was 110 pg/mL and the “MCP-1 change from baseline at Week 24, mean” value ([1]; CVC 100 mg) was 493 pg/mL. The “MCP-1 change from baseline at Week 24, median” value ([1]; CVC 100 mg) was 429 pg/mL, the “MCP-1 change from baseline at Week 48, mean” value ([1]; CVC 100 mg) was 636 pg/mL and the “MCP-1 change from baseline at Week 48, median” value ([1]; CVC 100 mg) was 523 pg/mL. The “hs-CRP baseline value, mean” value ([1]; CVC 100 mg) was 0.39 mg/dL, the “hs-CRP baseline value, median” value ([1]; CVC 100 mg) was 0.15 mg/dL and the “hs-CRP change from baseline at Week 24, mean” value ([1]; CVC 100 mg) was -0.16 mg/dL. For the same compound, the “hs-CRP change from baseline at Week 24, median” value ([1]; CVC 100 mg) was -0.03 mg/dL, the “hs-CRP change from baseline at Week 48, mean” value ([1]; CVC 100 mg) was -0.08 mg/dL and the “hs-CRP change from baseline at Week 48, median” value ([1]; CVC 100 mg) was -0.01 mg/dL. The “sCD14 (original values) baseline value, mean” value ([1]; CVC 100 mg) was 1.8e+06 pg/mL, the “sCD14 (original values) baseline value, median” value ([1]; CVC 100 mg) was 1.73e+06 pg/mL and the “sCD14 (original values) change from baseline at Week 12, mean” value ([1]; CVC 100 mg) was -140000 pg/mL. The “sCD14 (original values) change from baseline at Week 12, median” value ([1]; CVC 100 mg) was -160000 pg/mL, the “sCD14 (original values) change from baseline at Week 24, mean” value ([1]; CVC 100 mg) was -190000 pg/mL and the “sCD14 (original values) change from baseline at Week 24, median” value ([1]; CVC 100 mg) was -180000 pg/mL. The “sCD14 (original values) change from baseline at Week 32, mean” value ([1]; CVC 100 mg) was 110000 pg/mL, the “sCD14 (original values) change from baseline at Week 32, median” value ([1]; CVC 100 mg) was 120000 pg/mL and the “sCD14 (original values) change from baseline at Week 48, mean” value ([1]; CVC 100 mg) was 100000 pg/mL. The “sCD14 (original values) change from baseline at Week 48, median” value ([1]; CVC 100 mg) was 100000 pg/mL, the “D-dimer baseline value, mean” value ([1]; CVC 200 mg) was 184 ng/mL and the “D-dimer baseline value, median” value ([1]; CVC 200 mg) was 125 ng/mL. For the same compound, the “D-dimer change from baseline at Week 24, mean” value ([1]; CVC 200 mg) was -64 ng/mL, the “D-dimer change from baseline at Week 24, median” value ([1]; CVC 200 mg) was -50 ng/mL and the “D-dimer change from baseline at Week 48, mean” value ([1]; CVC 200 mg) was -70 ng/mL. For the same compound, the “D-dimer change from baseline at Week 48, median” value ([1]; CVC 200 mg) was -50 ng/mL, the “Fibrinogen baseline value, mean” value ([1]; CVC 200 mg) was 248 mg/dL and the “Fibrinogen baseline value, median” value ([1]; CVC 200 mg) was 260 mg/dL. The “Fibrinogen change from baseline at Week 24, mean” value ([1]; CVC 200 mg) was -7 mg/dL, the “Fibrinogen change from baseline at Week 24, median” value ([1]; CVC 200 mg) was -8 mg/dL and the “Fibrinogen change from baseline at Week 48, mean” value ([1]; CVC 200 mg) was -10 mg/dL. The “Fibrinogen change from baseline at Week 48, median” value ([1]; CVC 200 mg) was -13 mg/dL, the “IL-6 baseline value, mean” value ([1]; CVC 200 mg) was 3.34 pg/mL and the “IL-6 baseline value, median” value ([1]; CVC 200 mg) was 1.90 pg/mL. For the same compound, the “IL-6 change from baseline at Week 24, mean” value ([1]; CVC 200 mg) was 0.81 pg/mL, the “IL-6 change from baseline at Week 24, median” value ([1]; CVC 200 mg) was 0.00 pg/mL and the “IL-6 change from baseline at Week 48, mean” value ([1]; CVC 200 mg) was -0.04 pg/mL. For the same compound, the “IL-6 change from baseline at Week 48, median” value ([1]; CVC 200 mg) was 0.00 pg/mL, the “MCP-1 baseline value, mean” value ([1]; CVC 200 mg) was 153 pg/mL and the “MCP-1 baseline value, median” value ([1]; CVC 200 mg) was 137 pg/mL. For the same compound, the “MCP-1 change from baseline at Week 24, mean” value ([1]; CVC 200 mg) was 753 pg/mL, the “MCP-1 change from baseline at Week 24, median” value ([1]; CVC 200 mg) was 695 pg/mL and the “MCP-1 change from baseline at Week 48, mean” value ([1]; CVC 200 mg) was 900 pg/mL. For the same compound, the “MCP-1 change from baseline at Week 48, median” value ([1]; CVC 200 mg) was 756 pg/mL, the “hs-CRP baseline value, mean” value ([1]; CVC 200 mg) was 0.46 mg/dL and the “hs-CRP baseline value, median” value ([1]; CVC 200 mg) was 0.15 mg/dL. For the same compound, the “hs-CRP change from baseline at Week 24, mean” value ([1]; CVC 200 mg) was -0.04 mg/dL, the “hs-CRP change from baseline at Week 24, median” value ([1]; CVC 200 mg) was -0.04 mg/dL and the “hs-CRP change from baseline at Week 48, mean” value ([1]; CVC 200 mg) was -0.18 mg/dL. For the same compound, the “hs-CRP change from baseline at Week 48, median” value ([1]; CVC 200 mg) was -0.04 mg/dL, the “sCD14 (original values) baseline value, mean” value ([1]; CVC 200 mg) was 1.88e+06 pg/mL and the “sCD14 (original values) baseline value, median” value ([1]; CVC 200 mg) was 1.86e+06 pg/mL. For the same compound, the “sCD14 (original values) change from baseline at Week 12, mean” value ([1]; CVC 200 mg) was -230000 pg/mL, the “sCD14 (original values) change from baseline at Week 12, median” value ([1]; CVC 200 mg) was -210000 pg/mL and the “sCD14 (original values) change from baseline at Week 24, mean” value ([1]; CVC 200 mg) was -230000 pg/mL. The “sCD14 (original values) change from baseline at Week 24, median” value ([1]; CVC 200 mg) was -190000 pg/mL, the “sCD14 (original values) change from baseline at Week 32, mean” value ([1]; CVC 200 mg) was -20000 pg/mL and the “sCD14 (original values) change from baseline at Week 32, median” value ([1]; CVC 200 mg) was -20000 pg/mL. For the same compound, the “sCD14 (original values) change from baseline at Week 48, mean” value ([1]; CVC 200 mg) was -40000 pg/mL, the “sCD14 (original values) change from baseline at Week 48, median” value ([1]; CVC 200 mg) was -40000 pg/mL and the “Virologic success (HIV-1 RNA <50 copies/mL)” value (from here on “Virologic success”) (HIV-1; CVC 100 mg + FTC/TDF, Week 24) was 76%. For the same compound, the “Virologic success” value (HIV-1; CVC 100 mg + FTC/TDF, Week 48) was 68%, the “Virologic success” value (HIV-1; CVC 200 mg + FTC/TDF, Week 24) was 73% and the “Virologic success” value (HIV-1; CVC 200 mg + FTC/TDF, Week 48) was 64%. For the same compound, the “Any graded (Grade 1-4) treatment-emergent laboratory abnormality, n subjects” value [2] was 106, the “Laboratory abnormality, worst Grade 1, n subjects” value [2] was 37 and the “Laboratory abnormality, worst Grade 2, n subjects” value [2] was 50. For the same compound, the “Laboratory abnormality, worst Grade 3 (Any Grade 3 abnormality), n subjects” value [2] was 13, the “Laboratory abnormality, worst Grade 4 (Any Grade 4 abnormality), n subjects” value [2] was 6 and the “ALT, worst Grade 1, n subjects” value ([2]; through Week 48) was 10. The “ALT, worst Grade 2, n subjects” value ([2]; through Week 48) was 5, the “ALT, worst Grade 3, n subjects” value ([2]; through Week 48) was 0 and the “ALT, worst Grade 4, n subjects” value ([2]; through Week 48) was 0. For the same compound, the “AST, worst Grade 1, n subjects” value ([2]; through Week 48) was 14, the “AST, worst Grade 2, n subjects” value ([2]; through Week 48) was 6 and the “AST, worst Grade 3, n subjects” value ([2]; through Week 48) was 1. For the same compound, the “AST, worst Grade 4, n subjects” value ([2]; through Week 48) was 0, the “Alanine aminotransferase (ALT) abnormality, any grade, n subjects” value ([2]; through Week 48) was 15 and the “Any Grade 3 or Grade 4 laboratory abnormality, n subjects” value ([2]; through Week 48) was 19. The “Aspartate aminotransferase (AST) abnormality, any grade, n subjects” value ([2]; through Week 48) was 21.
